{
  "source": "patent US12239643B2",
  "about": "“Therapeutic agent for inflammatory diseases, autoimmune diseases, fibrotic diseases, and cancer diseases” (MEIJI SEIKA PHARMA CO., LTD., priority 2018, dated 2025)",
  "key": {"[1]": {"tested_on": "TNFα", "assay": "Cytokine suppression using whole human blood: TNFα (lipopolysaccharide stimulus)", "assay_type": "cell-based", "settings": "read-out: TNFα Inhibitory Activity, Human Whole Blood (Test Example 3)", "procedure": "The test compound dissolved in dimethyl sulfoxide was added to a 96-well plate, and RPMI-1640 medium and human peripheral blood containing sodium heparin were added, followed by culture at 37° C. under 5% CO2 for 1 hour. A medium containing only dimethyl sulfoxide instead of the test compound was added to the control well. To each well, lipopolysaccharide (final concentration 10 ng/mL) as a TNFα production stimulant, or phytohaemagglutinin (final concentration 20 μg/mL) as an IL-17A production stimulant, or CytoStim reagent ( 1/100 concentration) and CD28 antibody (final concentration 2.5 ng/mL) as an IL-4 production stimulant and an IL-5 production stimulant were added, followed by culture at 37° C. under 5% CO2. The culture was carried out for about 18 hours for the evaluation of the amount of TNFα, and for about 48 hours for the evaluation of the amounts of IL-17A, IL-4, and IL-5.\nAfter collecting the culture supernatant after culturing, the amount of each cytokine was measured by the sandwich ELISA method. The cytokine production suppression rate (inhibition rate) by the test compound was calculated by the following formula from the cytokine production amount when the test compound was added, with the cytokine production amount for the control well as 100%. Inhibition Rate={1−(Cytokine Amount at Addition of Each Test Compound)/(Cytokine Amount for Control Well)}×100\nIn addition, the cytokine inhibitory activity (concentration for the inhibition rate of 50%) of the test compound was calculated from the inhibition curves based on the inhibition rates for various concentrations of the test compound.\nThe measurement results obtained by measuring the TNFα inhibitory activity and IL-5 inhibitory activity (50% inhibitory concentration) of the test compounds by the above method were evaluated in accordance with the following evaluated basis; A: less than 100 nM, B: 100 nM or more and less than 500 nM, and C: 500 nM or more. In addition, the measurement results obtained by measuring the IL-17A inhibitory activity and IL-4 inhibitory activity (50% inhibitory concentration) of the test compounds were evaluated in accordance with the following evaluated basis; A: less than 500 nM, B: 500 nM or more and less than 5000 nM, and C: 5000 nM or more."}, "[2]": {"tested_on": "oxazolone-induced auricle edema, BALB/c mice", "assay": "Mouse delayed type hypersensitivity (DTH) model (topical)", "assay_type": "in vivo", "settings": "20 μL applied to auricle, 24 hours after application", "procedure": "Evaluation was carried out using female BALB/c mice (7 to 8 weeks of age). First, the hair of the abdomen of the mice was treated with a hair clipper, and then 150 μL of a 3% oxazolone acetone/ethanol solution was applied to the abdomen as a hapten. Five days later, 20 μL/ear of a 1% oxazolone.acetone/ethanol solution was applied to the outer surface of the auricle of both ears of the mouse to induce inflammation. Thirty minutes after the start of inflammation induction, 20 μL of the test compound dissolved in an acetone/ethanol solution was applied to the auricle. A 1% oxazolone was not applied to the blank. The control was one in which 1% oxazolone was applied and only an acetone/ethanol solution was applied without using the test compound. The auricle thickness 24 hours after application of the test compound was measured with a dial thickness gauge, and the value obtained by subtracting the blank value was used to calculate the edema suppression rate by the following formula. Edema Suppression Rate (%)={1−(Value at Addition of Each Test Compound−Blank Value)/(Control Value−Blank Value)}×100 The measurement results obtained by measuring the edema suppression rate at the time of topical administration of each test compound by the above method were evaluated in accordance with the following evaluated basis; A: 60% or more, B: 40% or more and less than 60%, and C: less than 40%."}, "[3]": {"tested_on": "TNFα", "assay": "Cytokine suppression using human peripheral blood mononuclear cells: TNFα", "assay_type": "cell-based", "settings": "read-out: TNFα Inhibitory Activity, Human PBMC (Test Example 4)", "procedure": "First, peripheral blood mononuclear cells (PBMC) were separated from whole blood by specific gravity centrifugation. Then, the isolated peripheral blood mononuclear cells were added to RPMI-1640 medium (containing 10% fetal bovine serum, penicillin, streptomycin, L-glutamine, and 2-mercaptoethanol), and cultured in a 96-well plate at 37° C. under 5% CO2 for 0 to 1 hour. The test compound dissolved in dimethyl sulfoxide was added to each well, followed by further culture at 37° C. under 5% CO2 for 1 hour. A medium containing only dimethyl sulfoxide instead of the test compound was added to the control well. To each well, lipopolysaccharide (final concentration 1 ng/mL) as a TNFα production stimulant and an IL-23 production stimulant, or concanavalin A (final concentration 20 μg/mL) as an IL-17A production stimulant was added, followed by culture at 37° C. under 5% CO2. In addition, as IL-4 production stimulus, IL-5 production stimulus, and IL-13 production stimulus, PBMC was seeded on a 96-well plate previously coated with a CD3 antibody (final concentration 3 μg/mL), and a CD28 antibody (final concentration 5 ng/mL) was added. The culture was carried out for about 18 hours for the evaluation of the amounts of TNFα and IL-23, and about 48 hours for the evaluation of the amounts of IL-17A, IL-4, IL-5, and IL-13. After collecting the culture supernatant after culturing, the amount of each cytokine was measured by the sandwich ELISA method in the same manner as in Test Example 3, and the cytokine production suppression rate (inhibition rate) and the cytokine inhibitory activity (concentration for the inhibition rate of 50%) of each test compound were calculated.\nThe measurement results obtained by measuring the TNFα inhibitory activity and IL-5 inhibitory activity (50% inhibitory concentration) of the test compounds by the above method were evaluated in accordance with the following evaluated basis; A: less than 10 nM, B: 10 nM or more and less than 100 nM, and C: 100 nM or more. In addition, the measurement results obtained by measuring the IL-17A inhibitory activity, IL-23 inhibitory activity, IL-4 inhibitory activity, and IL-13 inhibitory activity (50% inhibitory concentration) of the test compounds were evaluated in accordance with the following evaluated basis; A: less than 500 nM, B: 500 nM or more and less than 5000 nM, and C: 5000 nM or more."}, "[4]": {"settings": "Homo sapiens, human whole blood"}, "[5]": {"settings": "human PBMC, lipopolysaccharide 1 ng/mL"}},
  "data": [
    {"compound": "FC(F)(F)Oc1ccc(-c2nccs2)c2oc(N3CC4CC(C3)N4)nc12", "note": "[Example 29, 2-(3,6-Diazabicyclo[3.1.1]heptan-3-yl)-7-(thiazol-2-yl)-4-(trifluoromethoxy)benzo[d]oxazole]", "values": [
      {"measurement": "IC50", "setting": "[1]; [4]", "result": "< 100", "unit": "nM"},
      {"measurement": "Mouse DTH Model (Test Example 11), Topical: edema suppression rate", "setting": "[2]", "result": "A (A: 60% or more)"}
    ]},
    {"compound": "CC(O)C(F)(F)Oc1ccc(-c2nccs2)c2oc(N3CC4CC(C3)N4)nc12", "note": "(single isomer, unassigned) [Example 252, 1-((2-(3,6-Diazabicyclo[3.1.1]heptan-3-yl)-7-(thiazol-2-yl)benzo[d]oxazol-4-yl)oxy)-1,1-difluoropropan-2-ol]", "values": [
      {"measurement": "IC50", "setting": "[3]; [5]", "result": "< 10", "unit": "nM"},
      {"measurement": "IC50", "setting": "[1]; human whole blood", "result": "< 100", "unit": "nM"},
      {"measurement": "Mouse DTH Model (Test Example 11), Topical: edema suppression rate", "setting": "[2]", "result": "B (B: 40% or more and less than 60%)"}
    ]},
    {"compound": "CCOc1cc([C@@H](CS(C)(=O)=O)N2C(=O)c3cccc(NC(C)=O)c3C2=O)ccc1OC", "note": "[apremilast, reference compound]", "values": [
      {"measurement": "IC50", "setting": "[3]; Homo sapiens, PBMC", "result": "10 to 100", "unit": "nM"},
      {"measurement": "IC50", "setting": "[1]; Homo sapiens", "result": "> 500", "unit": "nM"}
    ]},
    {"compound": "CC(C)(O)C(F)(F)Oc1ccc(-c2nccs2)c2oc(N3CC4CC(C3)N4)nc12", "note": "[Example 248, 1-((2-(3,6-Diazabicyclo[3.1.1]heptan-3-yl)-7-(thiazol-2-yl)benzo[d]oxazol-4-yl)oxy)-1,1-difluoro-2-methylpropan-2-ol]", "values": [
      {"measurement": "IC50", "setting": "[3]; [5]", "result": "< 10", "unit": "nM"},
      {"measurement": "IC50", "setting": "[1]; [4]", "result": "< 100", "unit": "nM"},
      {"measurement": "Mouse DTH Model (Test Example 11), Topical: edema suppression rate", "setting": "[2]", "result": "A (A: 60% or more)"}
    ]}
  ]
}
